Results from US9161944B2, “Method for preventing cancer metastasis” (INSERM (INSTITUT NATIONAL DE LA SANTE ET DE LA SANTE ET DE …, priority 2010, dated 2015).

Assays:
MCF-10A = test: Transwell motility of non cancerous cells; format: cell-based, human; details: 10 nM to 1 μM, FIG. 6C
Description: FIG. 6: JPH1701 (or Ohmline) activity on cell motility on cancerous MDA-MB-435s cells and on non cancerous MCF-10A cells. The motility was tested by transwell assay. Additionally, viability tests were performed using MTT assays. FIG. 6A-B) JPH1701 (the concentrations of JPH1701, for the FIG. 6A, are 0 (control condition), 10 nM, 100 nM, 300 nM and 1 μM) reduces motility (FIG. 6A) of MDA-MB-435s wild type (WT) cells from 10 nM without affecting viability (FIG. 6B) except at 10 μM. FIG. 6C-D) MCF-10A motility (FIG. 6C) and viability (FIG. 6D) are not affected by JPH1701 (the concentrations of JPH1701, for the FIG. 6C, are 0 (control condition), 10 nM, 100 nM, 300 nM and 1 μM). FIG. 6E-F) Effect on SK3 dependent motility.
The immortalized normal mammary epithelial cell lines MCF-10A and 184A1 were cultured in DMEM/Ham's F-12, 1:1 mix containing 5% horse serum (Invitrogen Life Technologies, France), insulin (10 μg/ml), epidermal growth factor (20 ng/ml), hydrocortisone (0.5 μg/ml) and, respectively for MCF-10A and 184A1, 100 ng/ml cholera toxin and 1 ng/ml cholera toxin plus 5 μg/ml transferrin.

SK2 = target: T1, SK2 (Homo sapiens, UniProt Q9H2S1); test: Whole-cell K+ currents in HEK293 cells expressing recombinant SK2; format: cell-based; details: 10 μM, FIG. 9B
T1 construct: expressed in transfected cells; host or cells: HEK293
T1 sequence (Q9H2S1 whole entry): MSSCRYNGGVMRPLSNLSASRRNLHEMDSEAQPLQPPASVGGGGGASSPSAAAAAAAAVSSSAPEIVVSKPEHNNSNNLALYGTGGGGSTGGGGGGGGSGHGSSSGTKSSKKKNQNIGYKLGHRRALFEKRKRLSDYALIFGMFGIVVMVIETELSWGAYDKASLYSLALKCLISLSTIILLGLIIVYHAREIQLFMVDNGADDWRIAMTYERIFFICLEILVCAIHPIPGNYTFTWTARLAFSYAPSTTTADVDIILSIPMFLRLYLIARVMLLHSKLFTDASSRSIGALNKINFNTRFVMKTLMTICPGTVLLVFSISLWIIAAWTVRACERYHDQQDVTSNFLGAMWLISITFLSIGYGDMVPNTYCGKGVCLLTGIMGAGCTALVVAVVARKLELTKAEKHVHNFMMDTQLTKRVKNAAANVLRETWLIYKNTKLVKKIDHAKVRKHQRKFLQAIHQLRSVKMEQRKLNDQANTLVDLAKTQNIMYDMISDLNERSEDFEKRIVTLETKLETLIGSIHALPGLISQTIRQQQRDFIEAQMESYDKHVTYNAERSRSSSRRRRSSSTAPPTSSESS
Description: FIG. 9. Selectivity effect of JPH1701 on SKCa subtype and on IKCa channels. FIG. 9A) Example of whole-cell K^+ currents recorded in HEK293 cells expressing recombinants SK1, SK2, SK3 and IKCa channels before and after application of 10 μM JPH1701 (upper graphs: SK1 and SK2 respectively, bottom graphs: SK3 and IKCa respectively). Currents were generated by ramp protocol from −100 mV to +60 mV in 500 ms from a constant holding of 0 mV and with a pCa 6. FIG. 9B) Histograms showing the effect of 10 μM JPH1701 on SKCa (SK1, SK2, SK3) and IKCa current amplitudes recorded at 0 mV. […] For each channel (SK1, SK2, SK3 and IKCa) the left column (pale grey) represents the control result and the right column (dark grey) represents the result after JPH1701 application.
The selectivity of JPH1701 toward the others members of the SKCa/IKCa channels was tested. […] The experimental protocol was similar to the one used in FIG. 8. JPH1701 was tested for membrane potential from +60 mV to −100 mV on 500 msec.

PKCs = PKCs activity (alpha, Beta 1, Beta 2, Gamma, Delta, Epsilon, Zeta, Eta, Theta, Iota); format: biochemical; details: ten PKCs, FIG. 11C
Description: FIG. 11: Effects of JPH1701 on PAF receptor, PLC and PKCs activities. FIG. 11A) Histogram showing the percentage of control specific binding of 3H-C16-PAF to recombinant PAF receptor obtained from membrane homogenates of CHO cells by 0.3 and 2 μM edelfosine and by 0.3 and 2 μM JPH1701. FIG. 11B) Histogram showing the percentage of control agonist response (% effect i.e: increase of intracellular calcium concentration) of 0.3 and 2 μM edelfosine and JPH1701 on PAF receptor normalized to the response induced by 100 nM C16-PAF. […] FIG. 11C-D) Dose responses curves showing the effect of JPH1701 on PKCs (FIG. 11C, PKCs are: alpha, Beta 1, Beta 2, Gamma, Delta, Epsilon, Zeta, Eta, Theta, Iota) and PhosphoLipase C (PLC) activities (FIG. 11D).

[1] = system: MDA-MB-435s cells expressing luciferase; test: Experimental metastasis model, cells injected into tail vein, BLI; format: in vivo, NMRI nude mice
Description: Female NMRI nude mice, 6 weeks old, were purchased from Janvier laboratories. Mice were bred and housed at INSERM, U892, University of Nantes, under the animal care license no 44565.
MDA-MB-435s were incubated with 1 μM JPH1701 or with 2% DMSO/3% ethanol (vehicle) during 24 h and injected (0.75 106) in iv into the lateral tail vein. Next, mice were treated three times a week for 12 weeks with JPH1701 at 15 mg/kg in i.v. or with vehicle.
All of the mice were assessed weekly using whole-body bioluminescent imaging to quantify relative amounts of metastasis burden (ΦImageur™; BIOSPACE Lab, France). Each mouse was given potassium salt of D-luciferin (Interchim) at dose of 150 mg/kg body weight by intraperitoneal injection and anesthetized with Ketamin/xylasin i.p. injection. […] Regions of interest were drawn around the experimental metastases. The amount of metastasis burden within each region of interest was quantified as the relative amount of light produced from the luciferase activity in breast cancer cells and expressed in cpm using the Photovision+ software (version 1.3; Biospace Lab). At necropsy, ex vivo BLI measurement were performed for each tissues collected.
To determine whether a SK3/KCa2.3 blocker such as JPH1701 could prevent metastasis development, we used a model of experimental metastasis with MDA-MB-435s cells expressing the firefly luciferase gene. Cancer cells were injected directly to the systemic circulation into the vein tail. One cohort of mice was treated with JPH1701 three times a week for 12 weeks by i.v. administration. Another cohort was treated with the vehicle in the same conditions. At the end of treatment, metastases were visualized in vivo by bioluminescence imaging (BLI) in 70% (7/10) of control mice and only in 40% (4/10) of JPH1701 treated-mice (Table 4). To go further, mice were sacrificed and detection of metastases in different tissues was performed ex vivo by BLI. The number of positive tissues from each cohort was show in Table 4. Metastatic lesions were detected in all vehicle-treated mice.

MDA-MB-435s = test: Cytotoxicity / cell viability (MTT, tetrazolium salt reduction)
[2] = 15 mg/kg i.v. three times a week, 12 weeks, N = 10
[3] = 15 mg/kg i.v., 12 weeks, N = 10

hexadecyloxy-2-O-methyl-sn-glycerol-lactose [JPH1701]
Effect on cell migration of non-cancerous cells (MCF-10A): did not affected
Effect on SK2 channels (SK2): inactive
Effect on PKC activity (PKCs): did not affect
Adverse effects in mice ([1]; 15 mg/kg i.v. three times a week for 12 weeks): No adverse effects
Number of mice with experimental metastases detected ex vivo by BLI [1, 2]: 7
Number of mice with experimental metastases detected in vivo by BLI [1, 2]: 4
Mice with no sign of metastasis development ex vivo ([1]; 15 mg/kg i.v., 12 weeks): 30%
Number of tissues with metastases detected by BLI: column [1, 3]: 2
Number of tissues with metastases detected by BLI: kidney [1, 3]: 0
Number of tissues with metastases detected by BLI: leg [1, 3]: 3
Number of tissues with metastases detected by BLI: liver [1, 3]: 0
Number of tissues with metastases detected by BLI: lung [1, 3]: 5
Number of tissues with metastases detected by BLI: lymph node [1, 3]: 1
Number of tissues with metastases detected by BLI: ovary/uterus [1, 3]: 0
Number of tissues with metastases detected by BLI: spleen [1, 3]: 0
Mice with metastases visualized in vivo by BLI at the end of treatment ([1]; 15 mg/kg i.v., 12 weeks, control 70%): 40%
Metastatic profile ([1]; FIGS. 10A-D): shifted the metastatic profile toward a less one
Additional wait until 75% of mice present detectable metastases (vehicle: week 4) ([1]; mice with metastases in vivo on week 12): 3 weeks
Metastasis appearance, times faster in control group than in treated group ([1]; mice with metastases in vivo on week 12, FIG. 10E): roughly 3 times
Toxicity (MDA-MB-435s; Table 2, viability of MDA-MB-435s): No at 10 μM
Effect on cell viability (MDA-MB-435s; at 10 nM to 1 μM, FIG. 6B): no effect on cell viability
Effect on MDA-MB-435s proliferation (MDA-MB-435s; in vitro): no effect
IC50 (MDA-MB-435s; read-out: Cytotoxicity IC50, Table 1): > 10 µM
